Assay: in vitro
Settings: PAMPA, pH 7.4

Papp at 5 h | SMILES
9.13 ×10⁻⁶ cm/s | Cn1c(=O)c2c(ncn2C)n(C)c1=O [CAFFEINE]
0.006 ×10⁻⁶ cm/s | CCN1CCCC1CNC(=O)c1cc(S(N)(=O)=O)ccc1OC (configuration not stated) [SULPIRIDE]

Source: ChEMBL document CHEMBL5360565, “Discovery of novel arylpiperazine-based DA/5-HT modulators as potential antipsychotic agents - Design, synthesis, structural studies and pharmacological profiling” (Eur J Med Chem, 2023)
